The text below walks through data of PMC3304000 (Bioorganic & medicinal chemistry, 2012).

≈ marks a conversion by molar mass, not a printed value. Where “and” joins values, the source holds several entries; their conditions need not be identical. Equal values may be shown once. A value given as a limit tells only on which side of the number the result lay.

Data set [1] concerns Drug sensitive Mtb clinical strain #1. Description: MIC against clinical Mtb strain in 7H9/glucose/glycerol/BSA/0.05% Tween 80. The following applies: Mycobacterium tuberculosis. The data set is classed as cell-based.
Data set [2] deals with Drug sensitive Mtb clinical strain #2. The description is as above. In kind it is cell-based. The following applies: Mycobacterium tuberculosis.
Data set [3] in a line: Stability in simulated gastric fluid. The following applies: after a 15-min incubation.
Data set [4] in a line: In vitro stability in rat liver microsomes. The following applies: after a 15-min incubation.
Data set [5] relates to Mtb H37Rv luxAB luminescence strain. Description: microbe, parasite or virus in culture. In kind it is cell-based. To be noted: Mycobacterium tuberculosis, read-out: LORA MIC (mean ± SD).
The subject of data set [6] is twelve MDR- and XDR-Mtb strains. The following applies: cited from earlier work.

For `O=C(OCc1ccccc1)c1coc(-c2ccccc2)n1` [Compound 2], the MIC was 4.4 µM to 8.9 µM and 1.25 µg/mL to 2.5 µg/mL in data set [1]; 2.2 to 4.4 µM (≈ 0.614 to 1.23 µg/mL) in data set [2]. The “compound remaining in simulated gastric fluid” value in data set [3] is 0.6%. In data set [4], the “compound remaining in rat liver microsomes” value was found to be 11%.
Regarding `O=C(OCc1ccccc1)c1csc(-c2ccccc2)n1` [Compound 5], the MIC in data set [1] is 10 µg/mL (≈ 33.9 µM).
As to `Cc1ccn2c(C(=O)OCc3ccccc3)c(-c3ccccc3)nc2c1` [Compound 9, benzyl 7-methyl-2-phenylimidazo[1,2-a]pyridine-3-carboxylate], the MIC in data set [5] was determined as 22 µM (≈ 7.53 µg/mL).
As for `Cc1ccn2c(C(=O)OCc3ccccc3)c(C)nc2c1` [Compound 11, benzyl 2,7-dimethylimidazo[1,2-a]pyridine-3-carboxylate], in data set [1], the MIC was less than 0.01 µg/mL.
For the compound `Cc1ccn2c(C(=O)NCc3ccccc3)c(C)nc2c1` [Compound 12, N-benzyl-2,7-dimethylimidazo[1,2-a]pyridine-3-carboxamide], the “MIC against a panel of twelve MDR- and XDR-Mtb strains” value in data set [6] was 0.07 to 2.3 µM. For the same compound, in data set [3], the “compound remaining in simulated gastric fluid” value is listed as 100%.
Turning to `O=[N+]([O-])c1cn2c(n1)OC[C@@H](OCc1ccc(OC(F)(F)F)cc1)C2` [PA-824, reference compound], in data set [1], the MIC was 0.45 µM to 0.86 µM and 0.16 µg/mL to 0.31 µg/mL.
